# Measurements published in ChEMBL document CHEMBL5291721, “A preclinical secondary pharmacology resource illuminates target-adverse drug reaction associations of marketed drugs” (Nat Commun, 2023).
# How the values were obtained:
# Estrogen receptor = target: T1, Estrogen receptor (Homo sapiens, UniProt P03372); assay type: functional
# T1 sequence (P03372 whole entry): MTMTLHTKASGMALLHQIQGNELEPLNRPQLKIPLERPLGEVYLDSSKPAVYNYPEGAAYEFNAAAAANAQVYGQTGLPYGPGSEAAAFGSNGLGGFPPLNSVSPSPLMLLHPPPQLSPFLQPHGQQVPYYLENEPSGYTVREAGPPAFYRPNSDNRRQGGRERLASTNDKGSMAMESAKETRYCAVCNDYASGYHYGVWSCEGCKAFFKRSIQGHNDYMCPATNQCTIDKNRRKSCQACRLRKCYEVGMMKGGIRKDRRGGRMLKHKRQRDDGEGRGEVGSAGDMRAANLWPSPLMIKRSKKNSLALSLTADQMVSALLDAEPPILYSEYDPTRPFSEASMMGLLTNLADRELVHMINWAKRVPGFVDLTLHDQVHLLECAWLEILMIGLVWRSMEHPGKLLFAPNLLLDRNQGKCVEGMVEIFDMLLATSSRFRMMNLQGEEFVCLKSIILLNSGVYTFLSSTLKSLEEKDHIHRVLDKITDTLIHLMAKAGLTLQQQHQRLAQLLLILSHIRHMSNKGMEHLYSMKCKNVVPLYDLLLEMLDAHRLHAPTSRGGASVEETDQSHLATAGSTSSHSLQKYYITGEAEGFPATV
# [1] = target: Gamma-aminobutyric acid receptor subunit alpha-1/alpha-2/beta-2/gamma-2 (Homo sapiens, UniProt P14867+P18507+P47869+P47870); assay type: functional, cell-based
# Sequence of Gamma-aminobutyric acid receptor subunit alpha-1/alpha-2/beta-2/gamma-2 (P14867 whole entry): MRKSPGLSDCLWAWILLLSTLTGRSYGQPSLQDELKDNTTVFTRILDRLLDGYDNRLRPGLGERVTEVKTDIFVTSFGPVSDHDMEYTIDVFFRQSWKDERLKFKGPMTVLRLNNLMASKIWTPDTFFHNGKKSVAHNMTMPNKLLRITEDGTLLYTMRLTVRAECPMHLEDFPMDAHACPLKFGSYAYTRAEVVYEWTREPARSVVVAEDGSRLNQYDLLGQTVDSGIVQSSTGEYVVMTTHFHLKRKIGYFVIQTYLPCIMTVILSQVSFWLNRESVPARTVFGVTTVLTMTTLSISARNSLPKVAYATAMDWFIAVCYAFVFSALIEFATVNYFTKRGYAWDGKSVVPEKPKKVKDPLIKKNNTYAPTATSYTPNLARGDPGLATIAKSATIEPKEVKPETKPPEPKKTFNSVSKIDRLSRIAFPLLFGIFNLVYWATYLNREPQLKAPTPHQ
# Sequence of Gamma-aminobutyric acid receptor subunit alpha-1/alpha-2/beta-2/gamma-2 (P47870 whole entry): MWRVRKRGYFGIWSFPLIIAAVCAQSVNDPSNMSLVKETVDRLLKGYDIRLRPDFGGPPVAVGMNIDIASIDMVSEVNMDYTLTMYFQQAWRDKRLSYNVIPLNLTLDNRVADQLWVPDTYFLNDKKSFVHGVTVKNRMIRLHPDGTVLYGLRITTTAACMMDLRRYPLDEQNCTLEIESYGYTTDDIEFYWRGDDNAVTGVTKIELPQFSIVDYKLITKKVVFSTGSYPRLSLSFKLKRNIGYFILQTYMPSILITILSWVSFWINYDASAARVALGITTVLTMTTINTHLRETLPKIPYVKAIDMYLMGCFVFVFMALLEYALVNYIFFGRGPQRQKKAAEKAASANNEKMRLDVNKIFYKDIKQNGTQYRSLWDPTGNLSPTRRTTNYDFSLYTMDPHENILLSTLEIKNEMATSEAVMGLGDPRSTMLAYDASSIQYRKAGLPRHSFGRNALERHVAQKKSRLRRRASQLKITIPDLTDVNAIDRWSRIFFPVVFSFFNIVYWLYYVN
# Sequence of Gamma-aminobutyric acid receptor subunit alpha-1/alpha-2/beta-2/gamma-2 (P18507 whole entry): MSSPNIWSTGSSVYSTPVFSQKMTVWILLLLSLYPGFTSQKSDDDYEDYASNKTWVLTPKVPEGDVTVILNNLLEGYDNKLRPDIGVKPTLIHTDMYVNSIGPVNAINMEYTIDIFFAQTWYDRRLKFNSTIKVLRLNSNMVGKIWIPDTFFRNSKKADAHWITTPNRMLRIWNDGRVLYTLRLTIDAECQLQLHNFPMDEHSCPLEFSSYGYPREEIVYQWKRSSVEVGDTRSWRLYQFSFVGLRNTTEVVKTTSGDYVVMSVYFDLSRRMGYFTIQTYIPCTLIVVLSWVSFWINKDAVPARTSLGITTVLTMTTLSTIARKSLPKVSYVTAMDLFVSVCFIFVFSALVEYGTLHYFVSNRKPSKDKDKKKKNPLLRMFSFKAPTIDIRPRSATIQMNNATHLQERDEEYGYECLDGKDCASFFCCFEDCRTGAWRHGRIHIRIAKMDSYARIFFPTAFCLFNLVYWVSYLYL
# Sequence of Gamma-aminobutyric acid receptor subunit alpha-1/alpha-2/beta-2/gamma-2 (P47869 whole entry): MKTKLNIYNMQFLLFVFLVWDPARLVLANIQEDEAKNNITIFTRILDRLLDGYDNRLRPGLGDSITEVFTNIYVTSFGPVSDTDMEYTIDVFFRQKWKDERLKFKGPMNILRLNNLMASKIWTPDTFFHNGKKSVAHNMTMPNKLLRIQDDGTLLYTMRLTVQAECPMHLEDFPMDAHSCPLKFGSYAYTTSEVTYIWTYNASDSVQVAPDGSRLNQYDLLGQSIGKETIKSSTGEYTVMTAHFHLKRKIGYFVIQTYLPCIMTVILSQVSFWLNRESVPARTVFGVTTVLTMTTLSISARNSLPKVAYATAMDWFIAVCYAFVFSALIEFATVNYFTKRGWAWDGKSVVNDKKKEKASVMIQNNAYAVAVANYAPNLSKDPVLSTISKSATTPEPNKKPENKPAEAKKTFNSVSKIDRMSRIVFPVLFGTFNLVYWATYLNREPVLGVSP
# Glucocorticoid receptor = target: T2, Glucocorticoid receptor (Homo sapiens, UniProt P04150); assay type: functional
# T2 sequence (P04150 whole entry): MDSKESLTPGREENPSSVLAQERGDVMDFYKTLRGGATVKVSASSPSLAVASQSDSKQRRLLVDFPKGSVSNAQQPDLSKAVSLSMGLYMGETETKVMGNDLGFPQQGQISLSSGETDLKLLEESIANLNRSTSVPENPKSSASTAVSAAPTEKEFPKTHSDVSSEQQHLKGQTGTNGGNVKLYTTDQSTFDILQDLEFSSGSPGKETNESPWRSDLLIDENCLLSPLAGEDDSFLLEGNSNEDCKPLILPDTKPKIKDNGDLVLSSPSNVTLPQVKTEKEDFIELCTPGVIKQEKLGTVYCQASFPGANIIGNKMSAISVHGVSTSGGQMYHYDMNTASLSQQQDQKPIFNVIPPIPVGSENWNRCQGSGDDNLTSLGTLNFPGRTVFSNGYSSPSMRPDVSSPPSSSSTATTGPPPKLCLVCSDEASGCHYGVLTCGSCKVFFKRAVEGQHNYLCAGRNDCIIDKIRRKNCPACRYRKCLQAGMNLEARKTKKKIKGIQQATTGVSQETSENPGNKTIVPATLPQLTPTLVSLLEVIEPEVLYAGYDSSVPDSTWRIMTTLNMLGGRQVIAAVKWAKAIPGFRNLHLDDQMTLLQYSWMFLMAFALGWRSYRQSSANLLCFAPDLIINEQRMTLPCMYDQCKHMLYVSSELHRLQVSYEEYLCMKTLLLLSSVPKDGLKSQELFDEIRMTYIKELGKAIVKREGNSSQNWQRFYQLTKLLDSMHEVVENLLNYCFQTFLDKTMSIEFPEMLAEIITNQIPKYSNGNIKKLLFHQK
# [2] = target: T3, Alpha-1A adrenergic receptor (Homo sapiens, UniProt P35348)
# T3 sequence (P35348 whole entry): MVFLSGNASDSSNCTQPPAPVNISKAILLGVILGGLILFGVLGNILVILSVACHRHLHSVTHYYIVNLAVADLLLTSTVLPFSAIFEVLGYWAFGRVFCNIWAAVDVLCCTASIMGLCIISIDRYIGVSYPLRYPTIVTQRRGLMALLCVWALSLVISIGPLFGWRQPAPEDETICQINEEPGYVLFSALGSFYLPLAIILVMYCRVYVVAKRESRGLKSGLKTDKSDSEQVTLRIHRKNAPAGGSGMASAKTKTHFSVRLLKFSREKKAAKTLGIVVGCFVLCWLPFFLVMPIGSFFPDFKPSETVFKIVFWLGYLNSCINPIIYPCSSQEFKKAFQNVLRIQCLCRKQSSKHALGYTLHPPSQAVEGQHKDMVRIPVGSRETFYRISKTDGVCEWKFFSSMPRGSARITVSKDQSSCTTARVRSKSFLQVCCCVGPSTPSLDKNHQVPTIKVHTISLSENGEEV
# [3] = target: Sodium channel protein type 5 subunit alpha (Homo sapiens, UniProt Q14524); assay type: functional, cell-based
# [4] = target: Vascular endothelial growth factor receptor 2 (Homo sapiens, UniProt P35968); assay type: functional
# Sequence of Vascular endothelial growth factor receptor 2 (P35968 whole entry): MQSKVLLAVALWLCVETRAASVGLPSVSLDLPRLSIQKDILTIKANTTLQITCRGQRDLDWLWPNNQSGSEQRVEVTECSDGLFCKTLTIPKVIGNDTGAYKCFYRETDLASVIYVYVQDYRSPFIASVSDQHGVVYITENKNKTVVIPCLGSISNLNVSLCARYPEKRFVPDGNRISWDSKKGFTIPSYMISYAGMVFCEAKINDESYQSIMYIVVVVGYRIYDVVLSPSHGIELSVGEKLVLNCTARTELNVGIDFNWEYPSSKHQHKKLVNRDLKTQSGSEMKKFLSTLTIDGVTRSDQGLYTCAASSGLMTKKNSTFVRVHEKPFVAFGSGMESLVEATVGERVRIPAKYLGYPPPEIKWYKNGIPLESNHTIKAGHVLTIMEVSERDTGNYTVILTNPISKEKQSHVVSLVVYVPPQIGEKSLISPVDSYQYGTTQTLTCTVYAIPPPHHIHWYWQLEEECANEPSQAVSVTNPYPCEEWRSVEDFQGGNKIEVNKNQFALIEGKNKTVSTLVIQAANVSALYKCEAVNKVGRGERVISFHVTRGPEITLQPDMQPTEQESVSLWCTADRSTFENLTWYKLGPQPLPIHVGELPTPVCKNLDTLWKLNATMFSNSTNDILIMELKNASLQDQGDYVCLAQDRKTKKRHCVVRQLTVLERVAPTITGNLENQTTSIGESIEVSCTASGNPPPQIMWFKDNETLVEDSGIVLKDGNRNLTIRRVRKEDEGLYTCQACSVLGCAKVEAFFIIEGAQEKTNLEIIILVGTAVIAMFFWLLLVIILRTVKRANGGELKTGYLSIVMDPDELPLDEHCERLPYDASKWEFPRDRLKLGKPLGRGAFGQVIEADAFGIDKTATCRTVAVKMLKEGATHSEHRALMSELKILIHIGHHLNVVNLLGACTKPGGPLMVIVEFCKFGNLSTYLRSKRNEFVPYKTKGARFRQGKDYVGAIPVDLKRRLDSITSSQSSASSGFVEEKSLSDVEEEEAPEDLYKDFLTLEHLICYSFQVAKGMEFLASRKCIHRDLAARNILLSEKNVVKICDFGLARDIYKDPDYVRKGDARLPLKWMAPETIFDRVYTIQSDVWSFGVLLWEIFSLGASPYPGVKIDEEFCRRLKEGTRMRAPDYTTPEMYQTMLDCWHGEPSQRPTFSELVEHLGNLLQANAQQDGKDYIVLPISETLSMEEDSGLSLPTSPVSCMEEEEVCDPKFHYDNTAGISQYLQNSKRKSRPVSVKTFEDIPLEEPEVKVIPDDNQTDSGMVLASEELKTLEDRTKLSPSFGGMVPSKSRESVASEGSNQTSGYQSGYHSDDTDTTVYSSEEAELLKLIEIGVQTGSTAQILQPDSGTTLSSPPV
# D(1A) dopamine receptor [5] = target: T4, D(1A) dopamine receptor (Homo sapiens, UniProt P21728); assay type: functional, cell-based
# T4 sequence (P21728 whole entry): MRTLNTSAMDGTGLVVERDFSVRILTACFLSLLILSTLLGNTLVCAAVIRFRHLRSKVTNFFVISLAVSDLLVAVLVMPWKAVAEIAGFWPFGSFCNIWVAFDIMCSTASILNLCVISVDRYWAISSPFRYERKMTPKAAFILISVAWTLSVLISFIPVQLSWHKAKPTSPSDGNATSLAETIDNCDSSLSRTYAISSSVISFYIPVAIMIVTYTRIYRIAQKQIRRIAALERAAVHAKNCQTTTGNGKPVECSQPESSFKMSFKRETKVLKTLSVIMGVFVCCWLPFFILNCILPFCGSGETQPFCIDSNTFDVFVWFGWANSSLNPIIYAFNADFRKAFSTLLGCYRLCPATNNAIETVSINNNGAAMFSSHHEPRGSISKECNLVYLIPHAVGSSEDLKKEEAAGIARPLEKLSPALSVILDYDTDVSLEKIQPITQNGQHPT
# Thromboxane A2 receptor = target: T5, Thromboxane A2 receptor (Homo sapiens, UniProt P21731); assay type: functional, cell-based
# T5 sequence (P21731 whole entry): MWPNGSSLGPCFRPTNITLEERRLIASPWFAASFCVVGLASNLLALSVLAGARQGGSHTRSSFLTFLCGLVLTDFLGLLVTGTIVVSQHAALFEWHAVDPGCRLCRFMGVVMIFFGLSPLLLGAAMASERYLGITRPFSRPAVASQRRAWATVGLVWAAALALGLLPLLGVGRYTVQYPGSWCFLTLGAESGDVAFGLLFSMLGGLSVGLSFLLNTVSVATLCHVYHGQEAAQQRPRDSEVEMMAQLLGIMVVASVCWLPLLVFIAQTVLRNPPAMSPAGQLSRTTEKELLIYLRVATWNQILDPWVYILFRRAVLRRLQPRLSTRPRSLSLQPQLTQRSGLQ
# D(1A) dopamine receptor [6] = target: T4, D(1A) dopamine receptor
# [7] = target: T3, Alpha-1A adrenergic receptor; remark: listed apart in the source
# [8] = target: Hydroxycarboxylic acid receptor 2 (Homo sapiens, UniProt Q8TDS4)
# Sequence of Hydroxycarboxylic acid receptor 2 (Q8TDS4 whole entry): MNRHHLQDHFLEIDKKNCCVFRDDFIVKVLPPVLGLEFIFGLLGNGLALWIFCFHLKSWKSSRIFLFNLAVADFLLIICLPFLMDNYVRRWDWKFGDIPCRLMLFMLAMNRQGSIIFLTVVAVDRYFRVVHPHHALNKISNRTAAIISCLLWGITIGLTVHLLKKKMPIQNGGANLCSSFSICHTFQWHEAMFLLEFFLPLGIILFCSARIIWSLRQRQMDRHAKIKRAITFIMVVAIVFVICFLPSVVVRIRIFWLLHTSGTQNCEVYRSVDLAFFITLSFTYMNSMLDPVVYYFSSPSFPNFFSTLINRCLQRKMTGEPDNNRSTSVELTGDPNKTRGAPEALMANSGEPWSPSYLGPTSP
# Note: assay procedure not described here.
smiles,measurement,setting,value
CCOc1nc2cccc(C(=O)O)c2n1Cc1ccc(-c2ccccc2-c2nnn[nH]2)cc1,AC50,Estrogen receptor,> 30 µM
same,AC50,[1],> 30 µM
same,AC50,Glucocorticoid receptor,> 30 µM
same,AC50,[2],> 10 µM
same,AC50,[3],> 50 µM
CCCc1nc2c(C)cc(-c3nc4ccccc4n3C)cc2n1Cc1ccc(-c2ccccc2C(=O)O)cc1,AC50,Estrogen receptor,> 30 µM
same,AC50,[1],> 30 µM
same,AC50,Glucocorticoid receptor,> 30 µM
same,AC50,[2],> 10 µM
same,AC50,[3],27.3 µM
CCOc1cc([C@@H](CS(C)(=O)=O)N2C(=O)c3cccc(NC(C)=O)c3C2=O)ccc1OC,AC50,Estrogen receptor,> 30 µM
same,AC50,[1],> 30 µM
same,AC50,[4],> 30 µM
same,AC50,Glucocorticoid receptor,> 30 µM
same,AC50,D(1A) dopamine receptor [5],> 30 µM
same,AC50,Thromboxane A2 receptor,> 30 µM
same,AC50,[3],> 50 µM
O=C(O)c1ccccc1 [BENZOIC ACID],AC50,[3],> 50 µM
Nc1c(CC(=O)O)cccc1C(=O)c1ccc(Br)cc1 [BROMFENAC],AC50,D(1A) dopamine receptor [6],> 30 µM
same,AC50,[7],> 30 µM
CC1(C)S[C@@H]2[C@H](NC(=O)C(C(=O)O)c3ccccc3)C(=O)N2[C@H]1C(=O)O (some centres not stated) [CARBENICILLIN],AC50,[1],> 30 µM
Cc1nnc(SCC2=C(C(=O)O)N3C(=O)[C@@H](NC(=O)Cn4cnnn4)[C@H]3SC2)s1 [CEFAZOLIN],AC50,Estrogen receptor,> 300 µM
same,AC50,[1],> 2400 µM
same,AC50,[4],> 300 µM
same,AC50,D(1A) dopamine receptor [5],> 300 µM
same,AC50,Thromboxane A2 receptor,> 300 µM
CC(C)(O/N=C(\C(=O)N[C@@H]1C(=O)N2C(C(=O)[O-])=C(C[n+]3ccccc3)CS[C@H]12)c1csc(N)n1)C(=O)O [CEFTAZIDIME],AC50,Estrogen receptor,> 300 µM
same,AC50,[1],> 2400 µM
same,AC50,[4],> 300 µM
same,AC50,Glucocorticoid receptor,> 300 µM
same,AC50,D(1A) dopamine receptor [5],> 300 µM
same,AC50,Thromboxane A2 receptor,> 300 µM
CC(C)NC(=N)NC(=N)Nc1ccc(Cl)c(Cl)c1 [CHLORPROGUANIL],AC50,[1],> 30 µM
same,AC50,D(1A) dopamine receptor [6],> 30 µM
same,AC50,[7],2.74 µM
CCCNC(=O)NS(=O)(=O)c1ccc(Cl)cc1 [CHLORPROPAMIDE],AC50,[2],5.7 µM
C[N+](C)(C)CCOP(=O)(O)OP(=O)([O-])OC[C@H]1O[C@@H](n2ccc(N)nc2=O)[C@H](O)[C@@H]1O [CITICOLINE],AC50,[1],> 30 µM
Clc1ccc(Cn2c(CN3CCCC3)nc3ccccc32)cc1 [CLEMIZOLE],AC50,[1],> 30 µM
same,AC50,[4],> 30 µM
same,AC50,Glucocorticoid receptor,> 30 µM
same,AC50,D(1A) dopamine receptor [5],> 30 µM
same,AC50,Thromboxane A2 receptor,> 10 µM
CCC(=O)O[C@]1(C(=O)CCl)[C@@H](C)C[C@H]2[C@@H]3CCC4=CC(=O)C=C[C@]4(C)[C@@]3(F)[C@@H](O)C[C@@]21C [CLOBETASOL PROPIONATE],AC50,Estrogen receptor,> 30 µM
same,AC50,[1],> 30 µM
Cc1nc(Nc2ncc(C(=O)Nc3c(C)cccc3Cl)s2)cc(N2CCN(CCO)CC2)n1 [DASATINIB],AC50,[2],> 10 µM
CC(C)Cc1ccc([C@H](C)C(=O)O)cc1 [DEXIBUPROFEN],AC50,Estrogen receptor,> 30 µM
same,AC50,[1],> 30 µM
same,AC50,Glucocorticoid receptor,> 30 µM
O=C(O)Cc1ccccc1Nc1c(Cl)cccc1Cl [DICLOFENAC],AC50,[2],5 µM
same,AC50,[3],> 30 µM
CN[C@@H]1[C@H](O[C@H]2[C@H](O[C@H]3[C@H](O)[C@@H](O)[C@H](NC(=N)N)[C@@H](O)[C@@H]3NC(=N)N)O[C@@H](C)[C@]2(O)CO)O[C@@H](CO)[C@H](O)[C@H]1O [DIHYDROSTREPTOMYCIN],AC50,D(1A) dopamine receptor [6],> 30 µM
same,AC50,[7],> 30 µM
CNC[C@H](O)c1ccc(O)c(O)c1 [EPINEPHRINE],AC50,Estrogen receptor,> 30 µM
same,AC50,[1],> 30 µM
O=C(O)Cc1ccccc1Oc1ccc(Cl)cc1Cl [FENCLOFENAC],AC50,[8],> 10 µM
same,AC50,[2],> 10 µM
Cc1onc(-c2c(F)cccc2Cl)c1C(=O)N[C@@H]1C(=O)N2[C@@H]1SC(C)(C)[C@@H]2C(=O)O [FLOXACILLIN],AC50,[1],> 30 µM
same,AC50,[4],> 30 µM
same,AC50,Glucocorticoid receptor,> 30 µM
same,AC50,D(1A) dopamine receptor [5],> 30 µM
same,AC50,Thromboxane A2 receptor,> 30 µM
Cc1ccc(C)c(OCCCC(C)(C)C(=O)O)c1 [GEMFIBROZIL],AC50,[8],> 10 µM
same,AC50,[2],13.7 µM
C#C[C@]1(O)C=C[C@H]2[C@@H]3CCC4=CC(=O)CC[C@@H]4[C@H]3CC[C@@]21CC [GESTODENE],AC50,D(1A) dopamine receptor [6],> 30 µM
same,AC50,[7],> 30 µM
CCCCCCCN(CC)CCCC(O)c1ccc(NS(C)(=O)=O)cc1 (configuration not stated) [IBUTILIDE],AC50,[3],> 30 µM
COc1cc(C(C)=O)ccc1OCCCN1CCC(c2noc3cc(F)ccc23)CC1 [ILOPERIDONE],AC50,Estrogen receptor,> 30 µM
same,AC50,[1],> 30 µM
same,AC50,Glucocorticoid receptor,> 30 µM
CC[C@H](C)C(=O)O[C@H]1C[C@@H](C)C=C2C=C[C@H](C)[C@H](CC[C@@H]3C[C@@H](O)CC(=O)O3)[C@H]21 [LOVASTATIN],AC50,[8],> 10 µM
same,AC50,[2],> 10 µM
same,AC50,[3],> 30 µM
CC[C@@H](CO)NC(=O)[C@@H]1C=C2c3cccc4c3c(cn4C)C[C@H]2N(C)C1 [METHYSERGIDE],AC50,[2],> 10 µM
CNC(=C[N+](=O)[O-])NCCSCc1csc(CN(C)C)n1 [NIZATIDINE],AC50,[2],> 10 µM
CN1Cc2c(N)cccc2C(c2ccccc2)C1 (configuration not stated) [NOMIFENSINE],AC50,[1],> 30 µM
CC(CN1c2ccccc2Sc2ccccc21)N(C)C (configuration not stated) [PROMETHAZINE],AC50,D(1A) dopamine receptor [6],> 30 µM
same,AC50,[8],> 10 µM
same,AC50,[7],0.03 µM
same,AC50,[2],0.0996 µM
CCCc1cc(=O)[nH]c(=S)[nH]1 [PROPYLTHIOURACIL],AC50,[2],> 10 µM
CN(CCOc1ccc(CC2SC(=O)NC2=O)cc1)c1ccccn1 (configuration not stated) [ROSIGLITAZONE],AC50,[3],> 30 µM
S=P(N1CC1)(N1CC1)N1CC1 [THIOTEPA],AC50,Estrogen receptor,> 30 µM
same,AC50,[1],> 30 µM
same,AC50,[4],> 30 µM
same,AC50,Glucocorticoid receptor,> 30 µM
same,AC50,D(1A) dopamine receptor [5],> 30 µM
same,AC50,Thromboxane A2 receptor,> 30 µM
C[C@]12C=CC(=O)C=C1CC[C@H]1[C@@H]3C[C@@H](O)[C@](O)(C(=O)CO)[C@@]3(C)C[C@H](O)[C@@]12F [TRIAMCINOLONE],AC50,Glucocorticoid receptor,> 30 µM
CC(C)C[C@H](NC(=O)[C@@H](O)[C@H](N)Cc1ccccc1)C(=O)O [UBENIMEX],AC50,D(1A) dopamine receptor [6],> 30 µM
same,AC50,[7],> 30 µM
CC(C)[C@H](N)C(=O)OCCOCn1cnc2c(=O)[nH]c(N)nc21 [VALACYCLOVIR],AC50,[8],> 10 µM
same,AC50,[2],> 10 µM
COc1cc(C(=O)NS(=O)(=O)c2ccccc2C)ccc1Cc1cn(C)c2ccc(NC(=O)OC3CCCC3)cc12 [ZAFIRLUKAST],AC50,Glucocorticoid receptor,> 30 µM
same,AC50,[2],> 10 µM
O=C1Cc2cc(CCN3CCN(c4nsc5ccccc45)CC3)c(Cl)cc2N1 [ZIPRASIDONE],AC50,[8],> 10 µM
same,AC50,[2],0.0275 µM
same,AC50,[3],> 50 µM
